One data set addresses CDK19/CycC (Homo sapiens, UniProt Q9BWU1). Description: LanthaScreen europium kinase binding assay (FRET displacement), CDK19. Conditions: for CDK19 Selectivity: CDK19/CDK8 selectivity based on IC50 values; for IC50: his-tagged CDK19/CycC 5 nM, tracer 10 nM, 3 h incubation. In short, it runs like this: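 His-tagged CDK19/CycC (5 nM) preincubated 30 min with 10 nM Alexa Fluor 665 ATP-site tracer, 2 nM biotin anti-his antibody and 2 nM europium-streptavidin, then titrated with compound (10^−4.5 to 10^−8 M). TR-FRET (ex 317, em 620/665 nm) read after 3 h at room temperature; duplicates, three independent runs, DMSO-normalized IC50.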
In general terms: TR-FRET usually uses a lanthanide donor and a delayed reading to cut background.

Data set [1] in a line: Liver microsome stability assay (Cyprotex), human. In kind it is in vitro ADME. The following applies: human liver microsomes. As to the method:
(§1) Microsome Assay to Measure Stability: The stability of the compounds was evaluated using a liver cell microsome assay commercially available from Cyprotex (Watertown, MA) (https://www.cyprotex.com/admepk/in-vitro-metabolism/microsomal-stability).

Data set [2] in a line: Liver microsome stability assay (Cyprotex), mouse. In kind it is in vitro ADME. Conditions: mouse liver microsomes. As to the method:
as §1
(Liver microsomes are a subcellular fraction often used to study metabolism.)

A further data set concerns MDA-MB-231 TNBC cells. Description: Triple-negative breast cancer cell death assay (LD50). The following applies: MDA-MB-231, 48 h treatment, live cell counts normalized to DMSO. In kind it is cell-based. As to the method: (§2) Triple-Negative Breast Cancer Cell Death Assay to Measure LD50: The efficacy and selectivity of the disclosed compounds was evaluated in a TNBC cell line assay (MDA-MB-231) and/or human foreskin fibroblast 2088 cells, as was protein binding to human serum and microsomal stability of the disclosed compounds, as described herein.
(§3) Cells from a TNBC cell line (MDA-MB-231) (approximately 100,000 cells) and/or human foreskin fibroblast 2088 cells were seeded into each well of a 6-welled polystyrene treated tissue culture plate and were allowed to attach for 18 h before treatment with the test compound. Cells were then treated every 24 h with a fresh batch of media containing the test compound at one of the respective concentration(s) (Log10 Molar [C]): −5.0, −5.5, −6.0, −6.5, −7.0, −7.5 so that a complete dose-response could be calculated.
(§4) After 48 h of treatment, adherent cells were fixed with a 4% paraformaldehyde solution and stained with Hoechst 33342 nuclear dye (5 μg/mL). Each well was imaged at 10× magnification on a Keyence BZ-X710 microscope and live cell counts were performed in triplicate for each condition using automated ImageJ computational software. LD50 values represent the percentage of live cells after treatment with the test compound, which was calculated after normalization to the DMSO only treated control group.

Another data set concerns the target CDK8 (Homo sapiens, UniProt P49336). Description: LanthaScreen europium kinase binding assay (FRET displacement), CDK8.
In data set [3] the test system is human foreskin fibroblast 2088 cells. Nature of the data set: Cell death assay in normal fibroblasts (LD50). In kind it is cell-based. Conditions: FIG. 1B. On the procedure: as §2, §3, §4

Here are results for 27 molecules from patent publication US20240351996A1, “CDK19-SELECTIVE INHIBITORS, AND METHODS OF USE THEREOF” (CZ BIOHUB SF, LLC, priority 2022, published 2024).

Each structure is given as a SMILES string.

Sequence of CDK8 (P49336 whole entry): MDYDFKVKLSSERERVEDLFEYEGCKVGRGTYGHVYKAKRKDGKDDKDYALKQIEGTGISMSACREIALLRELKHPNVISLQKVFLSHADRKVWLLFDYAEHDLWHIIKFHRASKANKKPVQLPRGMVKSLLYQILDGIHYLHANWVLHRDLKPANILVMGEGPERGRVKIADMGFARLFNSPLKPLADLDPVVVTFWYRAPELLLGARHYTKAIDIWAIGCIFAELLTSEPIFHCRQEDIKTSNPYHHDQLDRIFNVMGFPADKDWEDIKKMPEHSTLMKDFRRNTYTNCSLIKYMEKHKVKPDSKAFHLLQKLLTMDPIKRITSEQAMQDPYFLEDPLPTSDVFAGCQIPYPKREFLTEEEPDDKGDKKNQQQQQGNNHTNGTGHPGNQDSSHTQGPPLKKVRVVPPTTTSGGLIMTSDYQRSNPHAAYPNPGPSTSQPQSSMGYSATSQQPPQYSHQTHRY
Sequence of CDK8 (P24863 whole entry partner): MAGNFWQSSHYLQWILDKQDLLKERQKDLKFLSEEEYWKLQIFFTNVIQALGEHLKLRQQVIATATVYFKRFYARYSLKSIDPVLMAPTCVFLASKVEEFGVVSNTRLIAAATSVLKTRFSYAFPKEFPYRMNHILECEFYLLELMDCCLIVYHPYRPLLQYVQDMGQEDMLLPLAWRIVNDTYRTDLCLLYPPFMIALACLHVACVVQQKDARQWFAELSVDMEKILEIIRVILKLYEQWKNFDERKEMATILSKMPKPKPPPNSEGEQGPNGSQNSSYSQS
Sequence of CDK19/CycC (Q9BWU1 whole entry): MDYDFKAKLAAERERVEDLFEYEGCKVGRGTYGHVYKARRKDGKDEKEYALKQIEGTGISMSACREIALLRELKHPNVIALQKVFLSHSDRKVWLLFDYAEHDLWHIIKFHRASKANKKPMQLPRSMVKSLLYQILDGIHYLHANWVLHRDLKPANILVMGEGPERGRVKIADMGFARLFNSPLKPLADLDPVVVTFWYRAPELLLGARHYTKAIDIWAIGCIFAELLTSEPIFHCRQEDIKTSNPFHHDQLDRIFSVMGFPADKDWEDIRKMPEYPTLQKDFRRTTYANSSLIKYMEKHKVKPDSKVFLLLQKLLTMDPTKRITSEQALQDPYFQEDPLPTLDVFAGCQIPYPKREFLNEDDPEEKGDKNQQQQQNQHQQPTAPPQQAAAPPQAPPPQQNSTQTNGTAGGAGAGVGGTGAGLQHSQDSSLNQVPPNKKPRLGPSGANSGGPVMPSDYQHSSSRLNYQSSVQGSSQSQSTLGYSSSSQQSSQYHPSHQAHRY
Sequence of CDK19/CycC (P24863 whole entry partner): as the sequence (P24863 whole entry partner) above

As a reminder, the IC50 is the concentration at which inhibition is half-maximal. A low value points to greater potency. For the molecule `CC(C)Cc1ccc(Nc2ncc(Nc3ccnc4ccccc34)cn2)cc1` [Compound A11], at CDK19/CycC, the “CDK19 Selectivity” value turned out to be 0.9 and the IC50 came to 25 nM. For the same molecule, the “Human Microsome Stability” value in data set [1] was found to be 28.7 μL/min/mg protein. Also, the “Mouse Microsome Stability” value in data set [2] is recorded as 31.3 μL/min/mg protein. For the same molecule, in the data set with MDA-MB-231 TNBC cells, the “MDA LD50” value is given as 180 nM. The half-inhibitory concentration (IC50) at CDK8 is 22 nM.

As for `Cc1cnccc1Nc1cnc(Nc2ccc(CC(C)C)cc2)nc1` [Compound A21], the “CDK19 Selectivity” value at CDK19/CycC came to 15. The IC50 on CDK19/CycC stood at 38 nM; at CDK8, 564 nM. Besides, the “Human Microsome Stability” value in data set [1] is listed as 159.0 μL/min/mg protein. Moreover, in data set [2], the “Mouse Microsome Stability” value came to 93.0 μL/min/mg protein. The “MDA LD50” value in the data set on MDA-MB-231 TNBC cells is listed as 178 nM.

As for `c1cc(Nc2cnc(Nc3ccc(C4CCC4)cc3)nc2)ccn1` [Compound A39], on CDK19/CycC, the “CDK19 Selectivity” value turned out to be 2 and the IC50 turned out to be 9.5 nM. For the same molecule, in data set [1], the “Human Microsome Stability” value came to 7.6 μL/min/mg protein. Further, the “Mouse Microsome Stability” value in data set [2] was determined as 38.6 μL/min/mg protein. The “MDA LD50” value in the data set on MDA-MB-231 TNBC cells came out at 158 nM. The molecule also registered an IC50 on CDK8 of 19 nM.

For `CNC(=O)c1cc(Nc2cnc(Nc3ccc(CC(C)C)cc3)nc2)ccn1` [Compound A47], on CDK19/CycC, the “CDK19 Selectivity” value is 2.4 and the IC50 is 308 nM. In addition, the “concentration at which significant fibroblast cell death was observed” value in data set [3] is 10,000 nM. For the same molecule, at CDK8, the IC50 was determined as 737 nM.

With `CC(C)Cc1ccc(Nc2ncc(Nc3ccncc3OC3CCCC3)cn2)cc1` [Compound A53], the “CDK19 Selectivity” value at CDK19/CycC was at least 22. In addition, the half-maximal inhibitory concentration (IC50) at CDK19/CycC is at most 2.5 nM; at CDK8, 56 nM. The “Human Microsome Stability” value in data set [1] came out at 36 μL/min/mg protein. Also, in data set [2], the “Mouse Microsome Stability” value is given as 19 μL/min/mg protein. In addition, in the data set on MDA-MB-231 TNBC cells, the “MDA LD50” value is recorded as 91 nM.

Turning to `Cc1cnccc1Nc1cnc(Nc2ccc(OC(C)C)cc2)nc1` [Compound A160], the “CDK19 Selectivity” value on CDK19/CycC was 3. Also, the results for the 50% inhibitory concentration (IC50) on CDK19/CycC and at CDK8 were 33 nM and 95 nM, respectively.

For `CC(C)Cc1ccc(Nc2ncc(C(F)(F)c3ccncc3)cn2)cc1` [Compound A161], at CDK19/CycC, the “CDK19 Selectivity” value was determined as 2 and the IC50 worked out at 9 nM. On CDK8, this molecule displayed an IC50 of 20 nM.

As to `Cc1cnccc1Nc1cnc(Nc2ccc(OC(C)C)cc2F)nc1` [Compound A162], on CDK19/CycC, the “CDK19 Selectivity” value worked out at 4 and the IC50 stood at 89 nM. In addition, the IC50 on CDK8 was found to be 362 nM.

For `CC(C)Cc1ccc(Nc2ncc(Nc3ccncc3NC3CCCC3)cn2)cc1` [Compound A163], at CDK19/CycC, the “CDK19 Selectivity” value turned out to be 1 and the IC50 amounted to 76 nM. At CDK8, this molecule had an IC50 of 75 nM.

On to `CC(C)Cc1ccc(Nc2ncc(Nc3ccncc3C3CC3)cn2)cc1` [Compound A164], for which the “CDK19 Selectivity” value on CDK19/CycC worked out at 3. In addition, the half-inhibitory concentration (IC50) at CDK19/CycC was found to be 75 nM; on CDK8, 226 nM.

Consider `Cc1cnccc1Nc1cnc(Nc2ccc(CC(C)C)cc2C)nc1` [Compound A165], for which, at CDK19/CycC, the “CDK19 Selectivity” value amounted to 4 and the concentration for half-maximal inhibition (IC50) amounted to 57 nM. The molecule also displayed an IC50 at CDK8 of 238 nM.

As to `Cc1nc(Nc2ccc(CC(C)C)cc2)ncc1Nc1ccncc1C(F)(F)F` [Compound A166], at CDK19/CycC, the “CDK19 Selectivity” value amounted to 1 and the IC50 came out at 5 nM. The same molecule yielded an IC50 on CDK8 of 5 nM.

As for `CC(C)Cc1ccc(Nc2ncc(C(C)(O)c3ccncc3)cn2)cc1` (stereo not shown) [Compound A167], on CDK19/CycC, the “CDK19 Selectivity” value worked out at 4 and the IC50 was 154 nM. Also, on CDK8, the half-inhibitory concentration (IC50) came to 614 nM.

On to `CC(C)Cc1ccc(Nc2ncc(C3(c4ccncc4)CC3)cn2)cc1` [Compound A169], for which, on CDK19/CycC, the “CDK19 Selectivity” value is given as 3 and the IC50 came to 20 nM. Moreover, at CDK8, the IC50 amounted to 62 nM.

For the molecule `CC(C)Cc1ccc(Nc2ncc(C(=O)c3ccncc3OC3CCCC3)cn2)cc1` [Compound A170], at CDK19/CycC, the “CDK19 Selectivity” value was 2 and the IC50 is 4 nM. In addition, on CDK8, the IC50 amounted to 7 nM.

In the case of `COc1cc(CC(C)C)ccc1Nc1ncc(C(=O)c2ccncc2OC2CCCC2)cn1` [Compound A171], the “CDK19 Selectivity” value at CDK19/CycC is listed as 2. Also, the IC50 at CDK19/CycC amounted to 16 nM; at CDK8, 25 nM.

Turning to `Cc1cc(CC(C)C)ccc1Nc1ncc(C(=O)c2ccncc2OC2CCCC2)cn1` [Compound A172], at CDK19/CycC, the “CDK19 Selectivity” value came out at 2 and the IC50 was found to be 5 nM. At CDK8, this molecule returned an IC50 of 11 nM.

For the molecule `CC(C)Cc1ccc(Nc2ncc(Nc3ccnc(C4CC4)c3)cn2)cc1` [Compound A173], at CDK19/CycC, the “CDK19 Selectivity” value worked out at 5 and the IC50 came out at 52 nM. Further, at CDK8, the IC50 was determined as 244 nM.

As for `Cc1cc(Nc2cnc(Nc3ccc(CC(C)C)cc3)nc2)c(F)cn1` [Compound A174], on CDK19/CycC, the “CDK19 Selectivity” value turned out to be 4 and the IC50 was determined as 7 nM. Further, the IC50 on CDK8 was 33 nM.

As for `CC(C)Cc1ccc(Nc2ncc(Nc3cc(F)ncc3F)cn2)cc1` [Compound A175], at CDK19/CycC, the “CDK19 Selectivity” value stood at 4 and the IC50 is 36 nM. The molecule further returned an IC50 at CDK8 of 129 nM.

With `CC(C)Cc1ccc(Nc2ncc(C(=O)c3ccncc3OC3CCCC3)cn2)c(F)c1` [Compound A176], at CDK19/CycC, the “CDK19 Selectivity” value is listed as 2 and the IC50 came out at 7 nM. In addition, on CDK8, the IC50 is 13 nM.

As for `CC(C)Oc1ccc(Nc2ncc(Nc3ccncc3C(F)(F)F)cn2)cc1` [Compound A177], the 50% inhibitory concentration (IC50) was at most 2.5 nM at CDK19/CycC and 3 nM at CDK8.

Consider `CCOc1ccc(Nc2ncc(Nc3ccncc3C(F)(F)F)cn2)cc1` [Compound A178], for which the results for the IC50 at CDK19/CycC and on CDK8 were at most 2.5 nM and 10 nM, respectively.

For `O=C(c1cnc(Nc2ccc(C3CCOCC3)cc2)nc1)c1ccncc1OC1CCCC1` [Compound A179], at CDK19/CycC, the “CDK19 Selectivity” value was at most 1 and the IC50 is at most 2.5 nM. In addition, the IC50 at CDK8 was at most 2.5 nM.

With `c1cc(Nc2cnc(Nc3ccc(C4CCOCC4)cc3)nc2)c(OC2CCCC2)cn1` [Compound A180], the IC50 at CDK19/CycC is 4 nM; at CDK8, 6 nM.

With `FC(F)(F)c1cnccc1Nc1cnc(Nc2ccc(C3CCOCC3)cc2)nc1` [Compound A181], the “CDK19 Selectivity” value on CDK19/CycC was at most 1. Besides, the IC50 at CDK19/CycC and at CDK8 was at most 2.5 nM throughout.

For `CC(C)Cc1ccc(Nc2ccc(C(=O)c3cccnc3)cn2)cc1` [Compound A200], on CDK19/CycC, the “CDK19 Selectivity” value is 2 and the IC50 was 1340 nM. Besides, on CDK8, the IC50 turned out to be 2380 nM.
